Data published in patent US5250542A, “Peripherally selective piperidine carboxylate opioid antagonists” (Eli Lilly and Company, priority 1992, dated 1993).
Where a name gives a salt, the structure may show the parent alone. Read-outs that look alike come from different tables or passages of the source.

Experiments:
[1] = target: T1, peripheral opioid receptors (Mus musculus, UniProt P42866); test: precipitated diarrhea in morphine-maintained mice (peripheral opioid activity) and comparison with the writhing test; assay type: in vivo; settings: for Ratio (AD50 mouse writhing test / ED50 mouse diarrhea test): higher ratio = greater relative antagonism of peripheral opioid receptors; for ED50: mouse, 0.5 h, morphine-maintained mice, antagonist subcutaneous or oral, 30 min observation
T1 construct: Mice maintained (6 mice/cage) on 0.01M saccharin water with 1 g/1 morphine sulfate; from tissue; host or cells: living morphine-maintained mice (in vivo test; endogenous receptor)
Procedure, shortened: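 Morphine-dependent mice (1 g/l morphine sulfate in drinking water ≥10 days, withdrawn 45 min before dosing) received antagonist subcutaneously or orally, 5 mice/dose. Diarrhea (and jumping) were scored over 30 min and doses lowered to find the diarrhea threshold. Peripheral selectivity was taken as writhing AD50 divided by diarrhea ED50.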

mu receptor = target: T2, mu receptor (Rattus norvegicus, UniProt P33535); test: opioid receptor binding assay, [3H] NAL (tritiated naloxone), mu receptor; set-up: species or system rat (Male Sprague Dawley), brain minus cerebellum; settings: for inhibition at 0.01 µM / inhibition at 0.1 µM: 20 min
T2 construct: rat whole brain minus cerebellum for mu was homogenized; from tissue; host or cells: brain of male Sprague Dawley rats, whole brain minus cerebellum, homogenate fraction
Procedure, shortened: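 Displacement of [3H]naloxone was measured on rat whole brain minus cerebellum membranes, preincubated 20 min and incubated 20 min at 37° C, with filtration separating bound ligand. Ki was derived from IC50 and ligand KD. Percent displacement was also recorded at 10 nM and 100 nM test compound.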

opioid receptor = target: T3, opioid receptor (Mus musculus, UniProt P42866); test: mouse writhing analgesis test: block of morphine-induced analgesia; assay type: in vivo, CF-1 male mice; set-up: unit not given here; settings: dose of antagonist that reduced the inhibition of writhing produced by 1.25 mg/kg morphine sulfate to 50%; subcutaneous, 20 min before acetic acid
T3 construct: Five CF-1 male mice (Charles River, Portage, Mich.); from tissue; host or cells: living CF-1 male mice (in vivo test; endogenous receptor)
Procedure, shortened: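 Male CF-1 mice (~20 g, fasted overnight, n=5) dosed subcutaneously 20 min before i.p. 0.6% acetic acid; writhes counted for 10 min starting 5 min post-injection. Antagonism measured as blockade of morphine-induced inhibition of writhing, percent versus vehicle controls; ED50 defined as 50% writhing inhibition.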

[2] = 10 nM test compound, [3H] naloxone 0.5 nM, read-out: % displacement at 10 nM
[3] = read-out: % displacement at 100 nM
[4] = read-out: % displacement at 10 nM, 10 nM test compound, [3H] naloxone 0.5 nM
[5] = read-out: % displacement at 100 nM, 100 nM test compound, [3H] naloxone 0.5 nM
[6] = 100 nM test compound, [3H] naloxone 0.5 nM, read-out: % displacement at 100 nM

T1 sequence (P42866 whole entry): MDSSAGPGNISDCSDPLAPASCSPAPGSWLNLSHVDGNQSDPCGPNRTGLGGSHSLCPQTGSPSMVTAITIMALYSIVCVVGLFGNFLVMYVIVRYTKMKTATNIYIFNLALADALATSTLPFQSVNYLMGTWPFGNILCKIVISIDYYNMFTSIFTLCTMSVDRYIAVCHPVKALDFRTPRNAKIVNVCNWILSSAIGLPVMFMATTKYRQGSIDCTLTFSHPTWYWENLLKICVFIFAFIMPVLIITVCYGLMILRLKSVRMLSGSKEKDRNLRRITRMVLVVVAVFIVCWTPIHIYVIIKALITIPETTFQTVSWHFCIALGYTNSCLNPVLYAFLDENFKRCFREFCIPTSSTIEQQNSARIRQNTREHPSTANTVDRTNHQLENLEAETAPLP
T3 sequence (P42866 whole entry): as above
T2 sequence (P33535 whole entry): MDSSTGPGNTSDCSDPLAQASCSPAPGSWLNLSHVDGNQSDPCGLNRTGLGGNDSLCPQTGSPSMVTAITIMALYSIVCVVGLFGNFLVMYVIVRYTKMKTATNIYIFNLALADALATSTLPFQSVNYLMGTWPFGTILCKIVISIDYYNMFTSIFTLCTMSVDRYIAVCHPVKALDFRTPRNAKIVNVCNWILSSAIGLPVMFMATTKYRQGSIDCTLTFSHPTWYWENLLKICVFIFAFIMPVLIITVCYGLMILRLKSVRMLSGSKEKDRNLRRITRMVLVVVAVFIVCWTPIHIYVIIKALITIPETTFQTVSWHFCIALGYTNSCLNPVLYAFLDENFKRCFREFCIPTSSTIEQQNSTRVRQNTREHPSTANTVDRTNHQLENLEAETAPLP

| SMILES | Ratio (AD50 mouse writhing test / ED50 mouse diarrhea test) [1] | ED50 [1] [mg/kg] | inhibition at 0.01 µM (mu receptor; [2]) [%] | inhibition at 0.1 µM (mu receptor; [3]) [%] | AD50 (opioid receptor) | Ki (mu receptor) [pM] | inhibition at 0.01 µM (mu receptor; [4]) [%] | inhibition at 0.1 µM (mu receptor; [5]) [%] | inhibition at 0.1 µM (mu receptor; [6]) [%] | inhibition at 0.01 µM (mu receptor; read-out: % displacement at 10 nM) [%] |
| --- | --- | --- | --- | --- | --- | --- | --- | --- | --- | --- |
| Cc1oc(=O)oc1COC(=O)CNC(=O)C(Cc1ccccc1)CN1CC[C@@](C)(c2cccc(O)c2)[C@@H](C)C1 (relative stereo) [Example 95] | 14 | 0.19 | 79 | 94 | 2.7 | – | – | – | – | – |
| C[C@H]1CN(CC(CC2CCCCC2)C(=O)NCCC(=O)O)CC[C@@]1(C)c1cccc(O)c1 (some centres unmarked) [Example 35, 3-[[3-[4-(3-hydroxyphenyl)-3,4-dimethyl-1-piperidinyl]-2-(cyclohexylmethyl)-1-oxopropyl]-amino]propanoic acid hydrochloride] | 667 | 0.06 | – | – | 40 | 540 | 98 | 100 | – | – |
| C[C@H]1CN(CCC(C(=O)NCCC(N)=O)C2CCCCC2)CC[C@@]1(C)c1cccc(O)c1 (relative stereo) [Example 17, monohydrochloride] | > 667 | 0.06 | – | – | > 40 | 430 | 97 | 100 | – | – |
| CCNC(=O)COC(=O)CNC(=O)C(Cc1ccccc1)CN1CC[C@@](C)(c2cccc(O)c2)[C@@H](C)C1 (relative stereo) [Example 89] | < 1 | > 10 | 94 | – | 6.0 | – | – | – | 99 | – |
| COC1CCC(OC(=O)CNC(=O)C(Cc2ccccc2)CN2CC[C@@](C)(c3cccc(O)c3)[C@@H](C)C2)CC1 (relative stereo) [Example 92] | 1540 | 0.005 | 85 | 97 | 7.7 | – | – | – | – | – |
| CNC(=O)CCCNC(=O)C(CCN1CC[C@@](C)(c2cccc(O)c2)[C@@H](C)C1)C1CCCCC1 (relative stereo) [Example 24, N-methyl-4-[[4-[4-(3-hydroxyphenyl)-3,4-dimethyl-1-piperidinyl]-2-cyclohexyl-1-oxobutyl]amino]butanamide monohydrochloride monohydrate] | > 400 | 0.1 | – | – | > 40 | 450 | 100 | 100 | – | – |
| CCOC(=O)C(Cc1ccccc1)CN1CC[C@@](C)(c2cccc(O)c2)[C@@H](C)C1 (relative stereo) [Example 4A, trans-4-(3-hydroxyphenyl)-3,4-dimethyl-a-(phenylmethyl)-1-piperidinepropanoic acid, ethyl ester hydrochloride] | 9 | 0.012 | – | 98 | 1.08 | 1380 | – | – | – | 92 |
| C[C@H]1CN(CCC(C(=O)O)C2CCCCC2)CC[C@@]1(C)c1cccc(O)c1 (relative stereo) [Example 9B, hydrochloride] | 75 | 0.02 | – | – | 1.50 | 660 | 90 | 93 | – | – |
| C[C@H]1CN(CC(Cc2ccccc2)C(=O)NCCN(C)C)CC[C@@]1(C)c1cccc(O)c1 (relative stereo) [Example 69, N-[2-(dimethylamino)ethyl]-3-[4-(3-hydroxyphenyl)-3,4-dimethyl-1-piperidine]-2-phenylmethylpropanamide dihydrochloride] | 51 | 1.7 | 57 | – | 30 | – | – | – | 89 | – |
